Measured values reported in US12091423B2, “Substituted 3,4,12,12a-tetrahydro-1H-[1,4]oxazino[3,4-c]pyrido[2,1-f][1,2,4]triazine-6,8-dione, pharmaceutical composition, method for the production and use thereof” (VIRIOM, INC., priority 2019, dated 2024).

Tested on: influenza A/California/2009 (H1N1)
Experiment: microbe, parasite or virus in culture
Assay type: cell-based
Settings: H1N1, MDCK

O=C1c2c(O)c(=O)ccn2N([C@@H]2c3ccc(F)c(F)c3CSc3ccsc32)[C@@H]2COCCN12 [1.3.2, (12aR)-7-hydroxy-12-[(10R)-6,7-difluoro-5,10-dihydrothieno[3,2-c][2]benzothiepin-10-yl]-3,4,12,12a-tetrahydro-1H-[1,4]oxazino[3,4-c]pyrido[2,1-f][1,2,4]triazine-6,8-dione]
EC50: < 0.3 nM

O=C1c2c(O)c(=O)ccn2N([C@H](c2ccccc2)c2ccc(F)c(F)c2)[C@@H]2COCCN12 [1.8.2, (12aR)-7-hydroxy-12-[(R)-(3,4-difluorophenyl)(phenyl)methyl]-3,4,12,12a-tetrahydro-1H-[1,4]oxazino[3,4-c]pyrido[2,1-f][1,2,4]triazine-6,8-dione]
EC50: 2 to 4 nM

O=C1c2c(O)c(=O)ccn2N([C@@H](c2ccccc2)c2ccc(F)c(F)c2)[C@@H]2COCCN12 [1.9.2, (12aR)-7-hydroxy-12-[(S)-(3,4-difluorophenyl)(phenyl)methyl]-3,4,12,12a-tetrahydro-1H-[1,4]oxazino[3,4-c]pyrido[2,1-f][1,2,4]triazine-6,8-dione]
EC50: 2 to 4 nM

O=C1c2c(O)c(=O)ccn2N(C(c2ccccc2)c2ccccc2)[C@@H]2COCCN12 [1.13.2, (12aR)-7-hydroxy-12-diphenylmethyl-3,4,12,12a-tetrahydro-1H-[1,4]oxazino[3,4-c]pyrido[2,1-f][1,2,4]triazine-6,8-dione]
EC50: 2 to 4 nM

O=C1c2c(O)c(=O)ccn2N(C(c2ccc(F)cc2)c2ccc(F)cc2)[C@@H]2COCCN12 [1.14.2, (12aR)-7-hydroxy-12-[bis(4-fluorophenyl)methyl]-3,4,12,12a-tetrahydro-1H-[1,4]oxazino[3,4-c]pyrido[2,1-f][1,2,4]triazine-6,8-dione]
EC50: 2 to 4 nM
